Measured values reported in patent US9695155B2, “Herbicidal substituted pyrimidinyloxy benzene compounds” (E. I. DU PONT DE NEMOURS AND COMPANY, priority 2013, dated 2017).

What was measured:
sedge, umbrella = assay: Test B flooded paddy test; type: in vivo, Cyperus difformis; details: Flood, 250 g ai/ha; 0 to 100 scale where 0 is no effect and 100 is complete control
Summary of the method: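 Flooded to 3 cm at the 2-leaf stage, pots received compound through the paddy water and were kept at that depth under greenhouse conditions. After 13–15 days, effect was rated by eye relative to controls, 0 = none and 100 = complete control.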

large (Lg) crabgrass = assay: Test C postemergence; type: in vivo, Digitaria sanguinalis
Summary of the method: (§1)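 Whole-plant greenhouse test with surfactant-containing solvent formulation, applied preemergence to sown loam–sand pots or postemergence to 2–18 cm plants. Scored by eye 13 to 15 days on, 0–100 scale.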

johnsongrass = assay: Test C postemergence; type: in vivo, Sorghum halepense
Summary of the method: as §1

pigweed [1] = assay: Test A preemergence; type: in vivo, Amaranthus retroflexus; details: 1000 g ai/ha, 0 to 100 scale, 0 no effect, 100 complete control, approx. 10 days
Summary of the method: (§2)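 Injury scores run from 0, no effect, to 100, complete control, judged by eye against untreated plants roughly 10 days after treatment. Chemicals carried a surfactant in a non-phytotoxic solvent and went onto loam–sand soil preemergence or onto one- to two-leaf seedlings postemergence.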

pigweed [2] = assay: Test A postemergence; type: in vivo, Amaranthus retroflexus; details: 1000 g ai/ha, 0 to 100 scale, 0 no effect, 100 complete control
Summary of the method: as §2

soybean = assay: Test C postemergence; type: in vivo, Glycine max
Summary of the method: as §1

yellow nutsedge = assay: Test C postemergence; type: in vivo, Cyperus esculentus
Summary of the method: as §1

Italian ryegrass = assay: Test C preemergence; type: in vivo, Lolium multiflorum; details: preemergence
Summary of the method: as §1

oilseed rape = assay: Test C postemergence; type: in vivo, Brassica napus
Summary of the method: as §1

giant foxtail = assay: Test C postemergence; type: in vivo, Setaria faberii
Summary of the method: as §1

velvetleaf = assay: Test C postemergence; type: in vivo, Abutilon theophrasti
Summary of the method: as §1

wheat = assay: Test A postemergence; type: in vivo, Triticum aestivum; details: 1000 g ai/ha, 0 to 100 scale, 0 no effect, 100 complete control
Summary of the method: as §2

galium = assay: Test C preemergence; type: in vivo, Galium aparine; details: for Galium plant response rating: preemergence
Summary of the method: as §1

[3] = 16 g ai/ha, postemergence, 0 is no effect, 100 is complete control
[4] = 31 g ai/ha, postemergence, visual rating, scale 0 to 100 (0 no effect, 100 complete control), 13 to 15 days
[5] = 125 g ai/ha, postemergence, visual rating, scale 0 to 100 (0 no effect, 100 complete control)
[6] = Postemergence, 62 g ai/ha, scale 0 to 100 (0 no effect, 100 complete control)
[7] = 16 g ai/ha, scale 0 to 100 (0 no effect, 100 complete control)
[8] = 62 g ai/ha, scale 0 (no effect) to 100 (complete control)
[9] = 125 g ai/ha, scale 0 (no effect) to 100 (complete control)

With FCc1cn(-c2c(F)cccc2Oc2ncc(Cl)cn2)nn1 [Compound 154] the “Plant response rating, Sedge, Umbrella” value (sedge, umbrella) was 30, the “Plant response rating (0 to 100), Crabgrass, Large” value (large (Lg) crabgrass; [3]) was 5 and the “Crabgrass, Large plant response rating” value (large (Lg) crabgrass; [4]) was 10. The “Plant response rating, Crabgrass, Large” value (large (Lg) crabgrass; [5]) was 10, the “Plant response rating, Crabgrass, Large” value (large (Lg) crabgrass; [6]) was 10 and the “Plant response rating (0 to 100), Johnsongrass” value (johnsongrass; [3]) was 0. For the same compound, the “Johnsongrass plant response rating” value (johnsongrass; [4]) was 0, the “Plant response rating, Johnsongrass” value (johnsongrass; [5]) was 5 and the “Plant response rating, Johnsongrass” value (johnsongrass; [6]) was 0. For the same compound, the “Pigweed plant response rating” value (pigweed [1]) was 100, the “Plant response rating, Pigweed” value (pigweed [2]) was 100 and the “Plant response rating (0 to 100), Soybean” value (soybean; [3]) was 40. The “Soybean plant response rating” value (soybean; [4]) was 65, the “Plant response rating, Soybean” value (soybean; [5]) was 75 and the “Plant response rating, Soybean” value (soybean; [6]) was 65. The “Plant response rating (0 to 100), Nutsedge, Yellow” value (yellow nutsedge; [3]) was 5, the “Nutsedge, Yellow plant response rating” value (yellow nutsedge; [4]) was 10 and the “Plant response rating, Nutsedge, Yellow” value (yellow nutsedge; [5]) was 10. For the same compound, the “Plant response rating, Nutsedge, Yellow” value (yellow nutsedge; [6]) was 10, the “Ryegrass, Italian plant response rating” value (Italian ryegrass; [7]) was 0 and the “Ryegrass, Italian plant response rating” value (Italian ryegrass; [8]) was 20. For the same compound, the “Ryegrass, Italian plant response rating” value (Italian ryegrass; [9]) was 25, the “Plant response rating (0 to 100), Oilseed Rape” value (oilseed rape; [3]) was 40 and the “Oilseed Rape plant response rating” value (oilseed rape; [4]) was 50. For the same compound, the “Plant response rating, Oilseed Rape” value (oilseed rape; [5]) was 80, the “Plant response rating, Oilseed Rape” value (oilseed rape; [6]) was 50 and the “Plant response rating (0 to 100), Foxtail, Giant” value (giant foxtail; [3]) was 5. For the same compound, the “Foxtail, Giant plant response rating” value (giant foxtail; [4]) was 10, the “Plant response rating, Foxtail, Giant” value (giant foxtail; [5]) was 15 and the “Plant response rating, Foxtail, Giant” value (giant foxtail; [6]) was 5. For the same compound, the “Plant response rating (0 to 100), Velvetleaf” value (velvetleaf; [3]) was 25, the “Velvetleaf plant response rating” value (velvetleaf; [4]) was 45 and the “Plant response rating, Velvetleaf” value (velvetleaf; [5]) was 80. For the same compound, the “Plant response rating, Velvetleaf” value (velvetleaf; [6]) was 70, the “Plant response rating, Wheat” value (wheat) was 80 and the “Galium plant response rating” value (galium; [7]) was 80. For the same compound, the “Galium plant response rating” value (galium; [8]) was 95, the “Galium plant response rating” value (galium; [9]) was 95 and the “Plant response rating, Galium” value (galium; Preemergence, 31 g ai/ha, scale 0 to 100, 0 no effect, 100 complete control) was 95.
